Reference: PMC10534724, “Interaction of ALK Inhibitors with Polyspecific Organic Cation Transporters and the Impact of Substrate-Dependent Inhibition on the Prediction of Drug–Drug Interactions” (Pharmaceutics, 2023)
Like-named read-outs stand apart in the source and are kept apart here.

Experiments:
hMATE2-K = biological target: T1, hMATE2-K (Homo sapiens, UniProt Q86VL8); assay: Inhibition of hMATE2-K-mediated substrate uptake in transfected HEK293 cells (pH 8.0); assay type: in vitro ADME; details: for In vivo DDI study recommendation, hMATE2-K: FDA-recommended criteria
T1 construct: expressed in transfected cells
T1 sequence (Q86VL8 1-566 isoform Q86VL8-3): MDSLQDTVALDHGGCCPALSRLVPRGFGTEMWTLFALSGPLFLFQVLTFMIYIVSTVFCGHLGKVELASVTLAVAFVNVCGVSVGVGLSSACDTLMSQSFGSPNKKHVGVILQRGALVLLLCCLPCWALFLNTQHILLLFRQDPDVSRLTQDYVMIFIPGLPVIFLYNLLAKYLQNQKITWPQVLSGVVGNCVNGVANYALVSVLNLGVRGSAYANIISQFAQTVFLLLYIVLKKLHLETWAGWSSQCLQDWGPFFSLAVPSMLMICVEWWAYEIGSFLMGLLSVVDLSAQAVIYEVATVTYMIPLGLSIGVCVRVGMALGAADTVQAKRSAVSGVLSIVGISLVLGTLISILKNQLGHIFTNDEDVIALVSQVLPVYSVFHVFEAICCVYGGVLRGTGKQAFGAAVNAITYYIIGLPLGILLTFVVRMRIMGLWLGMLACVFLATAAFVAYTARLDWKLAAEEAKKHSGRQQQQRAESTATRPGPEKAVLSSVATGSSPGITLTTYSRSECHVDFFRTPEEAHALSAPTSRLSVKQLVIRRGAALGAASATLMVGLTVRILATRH

hOCT1 [1] = biological target: T2, hOCT1 (Homo sapiens, UniProt O15245); assay: Inhibition of hOCT1-mediated substrate uptake in transfected HEK293 cells; assay type: in vitro ADME; details: for In vivo DDI study recommendation, hOCT1: FDA-recommended criteria
T2 construct: expressed in transfected cells
T2 sequence (O15245 1-554): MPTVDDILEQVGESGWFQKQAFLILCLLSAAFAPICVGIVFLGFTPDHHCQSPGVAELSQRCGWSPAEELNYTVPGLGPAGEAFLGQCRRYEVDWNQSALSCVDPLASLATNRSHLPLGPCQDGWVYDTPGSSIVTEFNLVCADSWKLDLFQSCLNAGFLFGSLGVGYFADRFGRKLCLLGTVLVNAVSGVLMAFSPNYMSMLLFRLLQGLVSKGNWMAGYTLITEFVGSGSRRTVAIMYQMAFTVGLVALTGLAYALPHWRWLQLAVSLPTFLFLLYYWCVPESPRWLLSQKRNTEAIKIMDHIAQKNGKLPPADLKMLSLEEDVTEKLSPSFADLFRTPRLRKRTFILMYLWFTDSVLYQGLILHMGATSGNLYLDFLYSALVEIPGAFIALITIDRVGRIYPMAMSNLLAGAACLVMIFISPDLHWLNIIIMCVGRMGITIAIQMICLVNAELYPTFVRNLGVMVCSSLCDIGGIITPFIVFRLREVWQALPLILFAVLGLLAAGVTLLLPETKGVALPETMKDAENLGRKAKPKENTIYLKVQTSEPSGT

hOCT1 [2] = biological target: T2, hOCT1; set-up: method as in PMID 32487736; details: substrate mIBG; HEK293; read-out: IC50, hOCT1-mediated mIBG uptake; cited from earlier work
hMATE1 = biological target: T3, hMATE1 (Homo sapiens, UniProt Q96FL8); assay: Inhibition of hMATE1-mediated substrate uptake in transfected HEK293 cells (pH 8.0); assay type: in vitro ADME; details: FDA-recommended criteria
T3 construct: expressed in transfected cells
T3 sequence (Q96FL8 1-570): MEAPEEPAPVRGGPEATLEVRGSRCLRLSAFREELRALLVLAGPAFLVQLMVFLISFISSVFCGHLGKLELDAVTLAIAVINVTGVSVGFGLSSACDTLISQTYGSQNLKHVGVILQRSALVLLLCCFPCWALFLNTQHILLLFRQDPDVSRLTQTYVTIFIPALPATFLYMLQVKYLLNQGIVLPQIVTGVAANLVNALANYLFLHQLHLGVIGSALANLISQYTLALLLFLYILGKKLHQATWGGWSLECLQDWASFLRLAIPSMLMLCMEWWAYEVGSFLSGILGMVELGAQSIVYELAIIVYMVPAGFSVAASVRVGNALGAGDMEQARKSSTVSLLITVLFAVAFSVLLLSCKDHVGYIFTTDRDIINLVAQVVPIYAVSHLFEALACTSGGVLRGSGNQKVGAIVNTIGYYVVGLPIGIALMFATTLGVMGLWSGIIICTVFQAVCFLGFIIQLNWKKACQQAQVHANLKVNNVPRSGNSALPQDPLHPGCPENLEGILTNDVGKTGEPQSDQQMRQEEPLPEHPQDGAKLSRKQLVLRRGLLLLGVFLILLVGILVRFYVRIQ

hOCT2 = biological target: T4, hOCT2 (Homo sapiens, UniProt O15244); assay: Inhibition of hOCT2-mediated substrate uptake in transfected HEK293 cells; assay type: in vitro ADME; set-up: expressed in transfected cells; details: for In vivo DDI study recommendation, hOCT2: FDA-recommended criteria
T4 sequence (O15244 1-555): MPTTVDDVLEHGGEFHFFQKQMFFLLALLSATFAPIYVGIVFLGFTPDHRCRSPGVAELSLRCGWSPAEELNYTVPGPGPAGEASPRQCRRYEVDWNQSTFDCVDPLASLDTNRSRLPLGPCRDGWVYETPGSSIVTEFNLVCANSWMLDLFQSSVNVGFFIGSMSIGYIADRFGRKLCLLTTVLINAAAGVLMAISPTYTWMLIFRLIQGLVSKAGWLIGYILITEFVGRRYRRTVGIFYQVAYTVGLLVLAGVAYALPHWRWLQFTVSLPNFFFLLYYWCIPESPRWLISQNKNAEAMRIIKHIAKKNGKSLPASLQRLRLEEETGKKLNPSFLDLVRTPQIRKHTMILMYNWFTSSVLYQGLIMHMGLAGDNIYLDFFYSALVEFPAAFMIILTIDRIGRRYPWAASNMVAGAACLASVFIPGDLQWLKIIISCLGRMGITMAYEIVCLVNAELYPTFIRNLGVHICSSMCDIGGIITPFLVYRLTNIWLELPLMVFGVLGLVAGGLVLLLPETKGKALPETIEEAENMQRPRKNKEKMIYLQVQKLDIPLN

hOCT3 = biological target: T5, hOCT3 (Homo sapiens, UniProt O75751); assay: Inhibition of hOCT3-mediated substrate uptake in transfected HEK293 cells; assay type: in vitro ADME; details: for In vivo DDI study recommendation, hOCT3: FDA-recommended criteria
T5 construct: expressed in transfected cells
T5 sequence (O75751 1-556): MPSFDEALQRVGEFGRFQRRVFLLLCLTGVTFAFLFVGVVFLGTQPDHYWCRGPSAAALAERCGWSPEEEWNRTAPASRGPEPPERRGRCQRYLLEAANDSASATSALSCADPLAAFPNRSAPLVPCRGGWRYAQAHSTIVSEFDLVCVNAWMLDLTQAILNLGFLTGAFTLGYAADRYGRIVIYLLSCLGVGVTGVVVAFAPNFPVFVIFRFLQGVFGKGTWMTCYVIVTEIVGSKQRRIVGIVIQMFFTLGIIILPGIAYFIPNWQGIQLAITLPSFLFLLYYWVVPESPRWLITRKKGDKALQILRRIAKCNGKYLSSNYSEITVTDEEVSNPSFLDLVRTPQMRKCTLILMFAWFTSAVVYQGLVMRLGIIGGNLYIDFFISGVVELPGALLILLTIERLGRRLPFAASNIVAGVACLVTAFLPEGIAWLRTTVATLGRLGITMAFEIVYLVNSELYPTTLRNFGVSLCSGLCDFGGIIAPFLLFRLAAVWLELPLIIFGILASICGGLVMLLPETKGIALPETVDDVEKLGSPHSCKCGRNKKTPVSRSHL

Question: With `C[C@@H](Oc1cc(-c2cnn(C3CCNCC3)c2)cnc1N)c1c(Cl)ccc(F)c1Cl` [Crizotinib] as the molecule, how does the “substrate dependency, hMATE2-K: more potent with metformin than with MPP+” value (hMATE2-K; IC50 ratio MPP+/metformin) read?
Answer: ~12 fold

Question: And the “substrate dependency, hMATE2-K: more potent with metformin than with mIBG” value (hMATE2-K; IC50 ratio mIBG/metformin)?
Answer: approximately 5 fold

Question: What about the “In vivo DDI study recommendation, hMATE2-K” value (hMATE2-K; substrate MPP+) of the same molecule?
Answer: No

Question: What about the “In vivo DDI study recommendation, hMATE2-K” value (hMATE2-K; substrate mIBG) of the same molecule?
Answer: No

Question: And the “In vivo DDI study recommendation, hMATE2-K” value (hMATE2-K; substrate metformin)?
Answer: No

Question: What about the “substrate dependency, hOCT1: more potent with metformin than with MPP+” value (hOCT1 [1]; IC50 ratio MPP+/metformin) of the same molecule?
Answer: ~21 fold

Question: What about the “substrate dependency, hOCT1: more potent with metformin than with mIBG” value (hOCT1 [1]; IC50 ratio mIBG/metformin) of the same molecule?
Answer: approximately 8 fold

Question: What about the IC50 (hOCT1 [1]; substrate 8.9 µM [14C]metformin, HEK293, 2 min, 37 °C, mean ± SD, read-out: IC50, hOCT1-mediated metformin uptake) of the same molecule?
Answer: 4.98 ± 0.15 µM

Question: And the “In vivo DDI study recommendation, hOCT1” value (hOCT1 [1]; substrate MPP+)?
Answer: No

Question: And the “In vivo DDI study recommendation, hOCT1” value (hOCT1 [1]; substrate mIBG)?
Answer: No

Question: What about the “In vivo DDI study recommendation, hOCT1” value (hOCT1 [1]; substrate metformin) of the same molecule?
Answer: No

Question: And the IC50 (hOCT1 [2])?
Answer: 40.3 ± 5.5 µM

Question: And the “In vivo DDI study recommendation, hMATE1” value (hMATE1; substrate MPP+)?
Answer: No

Question: And the “In vivo DDI study recommendation, hMATE1” value (hMATE1; substrate mIBG)?
Answer: No

Question: What about the “In vivo DDI study recommendation, hMATE1” value (hMATE1; substrate metformin) of the same molecule?
Answer: No

Question: What about the “substrate dependency, hOCT2: more potent with metformin than with MPP+” value (hOCT2; IC50 ratio MPP+/metformin) of the same molecule?
Answer: ~16 fold

Question: And the “substrate dependency, hOCT2: more potent with metformin than with mIBG” value (hOCT2; IC50 ratio mIBG/metformin)?
Answer: approximately 2 fold

Question: What about the “In vivo DDI study recommendation, hOCT2” value (hOCT2; substrate MPP+) of the same molecule?
Answer: No

Question: What about the “In vivo DDI study recommendation, hOCT2” value (hOCT2; substrate mIBG) of the same molecule?
Answer: No

Question: And the “In vivo DDI study recommendation, hOCT2” value (hOCT2; substrate metformin)?
Answer: No

Question: And the “substrate dependency, hOCT3: differences in IC50 values across substrates” value (hOCT3; metformin, mIBG, MPP+)?
Answer: ≤ 5 fold

Question: And the “In vivo DDI study recommendation, hOCT3” value (hOCT3; substrate MPP+)?
Answer: No

Question: And the “In vivo DDI study recommendation, hOCT3” value (hOCT3; substrate mIBG)?
Answer: No

Question: What about the “In vivo DDI study recommendation, hOCT3” value (hOCT3; substrate metformin) of the same molecule?
Answer: No
